Results published in patent US20140194484A1, “Method of Treating Cachexia and Sarcopenia” (priority 2012, published 2014).
“Also recorded” adds a separate entry of the source.

How the values were obtained:
[1] = tested on: pre-clinical models of cancer cachexia; assay: pre-clinical models of cancer cachexia; assay type: in vivo
[2] = tested on: patients with cachexia related to late stage colorectal cancer (CRC) or non-small cell lung cancer (NSCLC); assay type: in vivo, human
Method: An international multicentre, randomised, double blind, placebo controlled clinical trial was conducted with three parallel treatment groups with dose escalation within each group. Male and female patients aged between 25 to 80 years of age with cachexia related to underlying progressive or recurrent late stage colorectal cancer (CRC) or non-small cell lung cancer (NSCLC) were treated for 16 weeks with either S-pindolol or placebo. All patients received standard of care chemotherapy, radiotherapy and supportive care throughout the study at the discretion of their treating physician.
After provision of written informed consent, patients were assessed for eligibility at screening visits occurring from days -8 to -1. All eligible patients with written informed consent were given a set of performance tests [stair climbing power (SCP), hand grip strength (HGS), short performance battery test (SPBT) and the six minute walk test (SMWT)] and receive a 7 day course of placebo (1 tablet two times per day). Patients able to adequately complete the performance tests and with at least 80% compliance after 7 days (tablet count: at least […]) were then randomised on Day 0 to one of three treatment groups. All patients attended for visits on days 7, 14, 21, 28, (each +/−1 day), 56, 84, 112, and 140 (each +/−7 days).
The dose of S-pindolol or placebo was escalated by the investigator in a blinded fashion as described below under the heading “Dose Escalation”. The maximum period of drug titration was 4 weeks and the minimum period was 2 weeks. The patients were required to attend study visits at 1 week intervals after the start of the titration phase until completion of dose escalation. The aim of dose escalation for all subjects is to reach the target dose of 8 tablets per day (4 tablets bd) or the maximum tolerated dose for a particular patient within the first 4 week period. Dose titration was achieved by varying the number of tablets taken from bottle 2. This was done such that patients will be randomised to receive either placebo, 2.5 mg S-pindolol twice daily, 5 mg S-pindolol twice daily, 7.5 mg S-pindolol twice daily, or 10 mg S-pindolol twice daily according to tolerance of the study drug.
• S-pindolol or placebo was administered over a 16 week period. The treatment regimens for the study are summarised below. • At regular monitoring visits, a study monitor checked that all code-break envelopes remained intact.
• Product was taken orally with food as prescribed two times daily
A SMWT was conducted on days 0, 28, 56, 84 and 112. The SMWT was conducted as described by Paul L Enright (Respiratory Care, August 2003 Vol 48 No 8)^12. A straight, level and even area at least 20 meter long and 2 meters wide was marked out at each investigational site and used for the SMWT for all subjects at each time point. Identical chairs were placed at each end of the 20 meter track.
The SCP test was conducted on days 0, 28, 56, 84 and 112. The SCP test was modified from that described by Bean et al (Arch Phys Med Rehabil Vol 88, May 2007) to account for the different stairway configurations at the investigational sites.
A HGS test was conducted on days 0, 28, 56, 84 and 112. The HGS test was modified from that described by Bassey (1990; NIH, 1990). A standard handgrip dynamometer (provided by Sponsor) that can be adjusted for hand size was used at all sites. Both hands were alternately measured in triplicate, followed by a fourth attempt on the dominant hand only. After an explanation the subject squeezed the handle as forcefully as possible for a few seconds and then released. Subjects were encouraged verbally using a standard script and the best score (in kilograms) of the dominant hand recorded in the CRF.
DEXA was performed at selected DEXA scan centres on days at day -1, 56 and 112.
The maximum period of drug titration was 4 weeks and the minimum period was 2 weeks. […]

[3] = compared with other β blockers studied
[4] = high dose (10 mg bd), ITT population, DEXA

CC(C)NC[C@H](O)COc1cccc2[nH]ccc12 [S-pindolol]
benefit compared to placebo and racemic pindolol (FIG. 4) ([1]; FIG. 4): particularly beneficial
effects on aspects of cancer cachexia [1, 3]: significant effects on all aspects
impact upon survival [1, 3]: greatest impact upon survival
efficacy compared with racemic pindolol ([1]; dose for dose basis, treatment of cachexia): superior efficacy to the racemic parent material; also recorded: better effects than racemic pindolol
Six minute walk test change ([2]; 2.5 and 10 mg bd vs placebo): trend towards dose response
Stair climbing power change ([2]; 2.5 and 10 mg bd vs placebo): trend towards dose response
Hand Grip Strength change, efficacy compared to placebo ([2]; high dose (10 mg bd), ITT population): statistically significant
Absolute weight change (primary endpoint), efficacy compared to placebo ([2]; high dose (10 mg bd), ITT population, 16 weeks): statistically significant
Fat mass change, efficacy compared to placebo [2, 4]: statistically significant
Lean mass change, efficacy compared to placebo [2, 4]: statistically significant
survival, difference between arms (FIG. 7) ([2]; low dose, high dose MT-102 and placebo arms): No significant differences in survival
